Read-outs that look alike come from different tables or passages of the source.
Legend:
[1] = test system: rat oligodendrocyte progenitor CG4 line; test: Differentiation assay on rat oligodendrocyte progenitor CG4 line (HCS, mCherry+); assay type: cell-based; conditions: secondary screen of 49 selected compounds, 1 μM, 5 days
Description: Primary validation on CG4 line toxicity and differentiation. An innovative OPC line was developed for fast and reliable high content screening (HCS) of small compounds inducing oligodendrocyte differentiation. The line was genetically engineered by lentiviral transduction of rat CG4 cells (PubMed=1613821; DOI=10.1002/jnr.490310125; Louis J. C., Magal E., Muir D., Manthorpe M., Varon S.; CG-4, a new bipotential glial cell line from rat brain, is capable of differentiating in vitro into either mature oligodendrocytes or type-2 astrocytes. J. Neurosci. Res. 31:193-204(1992) to express mCherry fluorescent reporter (Evercooren, Anne & Avellana-Adalid, V. & Vitry, Sandrine & Nait-Oumesmar, Brahim & Lachapelle, Francois. (1997). Expansion of Oligodendrocyte Progenitors for Myelin Repair. 10.1007/978-1-4615-5949-8_21) in mature oligodendrocytes only, and EGFP at all stage of the oligodendroglial lineage: both the generation of mature oligodendrocytes (wmNl-mCherry) and the morphological changes associated with differentiation (CMV-EGFP) can be therefore monitored in a single assay. mCherry expression occurred only in O4+/GalC+ differentiated oligodendrocytes and GFP was ubiquitously expressed at all developmental stages. The line so obtained was validated using compounds with well-established effects on oligodendrocyte differentiation (cAMP and T3). Cell-based assay was standardized on the HCS platform (ArrayScanXTI, Brain and Spine Institute (Paris), validating the pro-differentiation effects of clemastine^27 and 9cis-retinoic acid.^28 For HCS validation of 274 compounds identified through in silico screen, double-fluo CG4 line cells were plated in 96 well-plates, 6500 cells/cm^2 and left for 24 h in proliferation. The other day, compounds were added (1 μM) for next 5 days of differentiation, with ⅔ medium changed after 3 days. 9-cis Retinoic Acid (9cis-RA; […]) served as a positive control, negative controls were basal (N1) medium and vehicle (basal+0.1% DMSO). Each compound was tested in triplicate and were imaged with ArrayScanXTI system (35 fields/well) after 5 days of differentiation.
FIG. 4 provides a schematic representation of High Content Screening (HCS) validation of the 274 compounds identified through in silico screening using CG4 line. […] In addition, the whole short list of 160 non-toxic compounds were screened using the CG4 high content phenotypic assay to further confirm the data from primary screening and to potentially select additional compounds with pro-myelinating activities. From this screening of the short list, 49 hit compounds were identified that increase differentiation either of CG4 cells or primary OPCs (FIG. 6).

[2] = test system: iPSC-derived neurons (DIV45)
Procedure: This protocol was modified from Yuchen Qi et al.^32 First, neural progenitors (NPCs) were generated from hiPSCs by dual-SMAD inhibition. Shortly, at day 0 iPSC colonies (confluent at 70-80%) were washed with PBS Dulbecco's w/o Calcium w/o Magnesium (Euroclone) and hiPSCs' maintenance medium (mTeSR™, StemCell Technologies) was replaced with neural induction medium composed by DMEM/F12 plus N2 medium (1×), B27 without RA supplement (0.5×) (Life Technology), added with SB431542 (10 μM) and LDN (500 nM). This medium was kept until day 4 (“induction”). At day 4, cells were splitted (1:3) with the same induction medium using Accutase®/Accumax™ (StemCell Technologies) dissociated solution. Entire medium was replaced daily up to days 14-16 until rosette formation was observed (“patterning”). At days 14-16, cells were detached by Accutase®/Accumax™ and re-plated on polyornitine/laminin/fibronectin coated MW96 or MW24 plates for terminal differentiation in Neurobasal medium supplemented with B27 (0.5×), BDNF (20 ng/ml), dbcAMP (500 μM), ascorbic acid (200 μM), PD0325901 (1 μM), SU5402 (5 μM), CHIR (3 μM), human recombinant insulin (5 μg/ml), supplemented with RI (Rock inhibitor) (1:3000) to reduce dissociation induced apoptosis. The half of differentiation medium was changed every 3-4 days, supplemented with 1 μg/ml laminin and DAPT (1-2 μM) until terminal maturation of neuronal population (MAP2+ cells). Cultures were characterized by immunocytochemistry and qRT-PCR and neuroprotective experiments were performed on days 30-40 of differentiation.
Evaluation of cytotoxicity of 160 selected compounds on iPSC-derived neurons (DIV45).

mouse cortical neurons = test: Morphological integrity evaluation, NMDA 8 μM (MAP2 neurite length and branching); assay type: cell-based; conditions: 3 h pre-treatment, NMDA 8 μM 24 h; Z>0.5 criteria
Procedure: Apart of viability/metabolic readout in NMDA-mediated neurotoxicity assay, a neuronal structural integrity was evaluated by MAP2 staining. Mouse cortical neurons (14 DIV) cultured in MW96 plates were fixed with 4% paraformaldehyde (PFA). Fixed cells were incubated with blocking solution (PBS 1×, donkey serum 5%, Triton 0.1%) for 1-hour, primary antibody (rabbit α-MAP2, 1:250, Millipore) was applied in the same solution overnight at +4° C. […] Nuclei were stained with 4′-6-diamidino-2-phenylindole (DAPI, Roche). Microscopy was performed using ArrayScan™XTI (ThermoFisher) imaging platform. 15 images per well were acquired and analyzed by CellProfiler. Total neurite length and the total number of non-trunk branches were analyzed. Total neurite length and the total number of branching were evaluated from 15 images/well, each compound or control was tested in triplicates. The total neurite length and total number of branches were converted to a standardized Z-score using formula: Xij=((Xij−μ)/σ), where xij is the raw measurement of the compound located in well (i, j), and μ and σ are, respectively, the mean and the standard deviation of all measurements of the plate.^31
The morphological integrity of mouse cortical neurons upon chronic 24 h NMDA (8 μM) exposure with compounds pre-treatment (3 h) in preventive regimen was evaluated. Control (basal), DMSO, N-acetylcysteine (NAC) served as positive controls, while staurosporine and NMDA were negative controls.

[3] = test system: primary murine spinal cord culture; test: Myelinating cell cultures from primary murine spinal cord; assay type: cell-based, mouse; conditions: 1 μM, Early treatment DIV7 to DIV14
Procedure: Single cell suspensions are prepared from spinal cord of mouse embryos (E13) (adapted from Thomson, 2008) and 1.5×10^5 cells/well were plated into 96 well plates. Over time, these cultures mature and form axons, which later myelinate. Using spinal cord tissue facilitates the quantification of mature MBP+ oligodendrocytes and newly formed myelin by in-house high-content imaging system (Operetta High Content Imaging System, Perkin Elmer) with a 20× lens. From each well, 25 fields in a 5×5 matrix were scanned. Thirty-two “Front Runners” compounds were tested in replicates of five at 1 μM/DMSO, while T3, benzotropine and clemastine were used as positive controls, DMSO as negative/solvent control. Two experimental paradigms were applied: “Early treatment”: exposure to experimental agent from DIV7 to DIV14; “Late treatment”: exposure to experimental agent from DIV14-DIV21. On DIV21, cultures were fixed and stained (myelin: MBP, axons: NF200; nuclei: Hoechst). Imaging data were analysed using CellProfiler and in-house generated analysis pipeline.
Thirty-two “Front Runners” compounds were tested in replicates of five at 1 μM/DMSO, while T3, benztropine and clemastine were used as positive controls, DMSO as negative/solvent control. Two experimental paradigms were applied: “Early treatment”: exposure to experimental agent from DIV7 to DIV14; “Late treatment”: exposure to experimental agent from DIV14-DIV21. […] In “Late treatment” paradigm in myelin area evaluation were identified Vanoxerine, Roxadustat, Tamibarotene, Drinabant, Progesterone, Saracatinib. In quantification of myelinated axons were identified Vanoxerine, Drinabant, Roxadustat.

[4] = test system: human iPS-derived neuroprecursors; test: Differentiation of human iPS-derived neuroprecursors into MBP+ oligodendrocytes; assay type: cell-based; conditions: 1 μM in minimal medium, p<0.05
Description: NPC bearing a doxycycline inducible polycistronic construct containing SOX10, OLIG2 and NKX6.2^29 in a human safe harbor (passages 10 to 25) were singularized on day −3 by treatment with Accutase and plated on Matrigel-coated 12-well plates at a density of 100.000 cells per well in N2B27-medium containing equal parts of neurobasal (Invitrogen) and DMEM-F12 medium (Invitrogen) with 1:100 B27 supplement lacking vitamin A (Invitrogen), 1:200 N2 supplement (Invitrogen), 1% penicillin/streptomycin/glutamine (PSG), 3 μM CHIR99021 (Axon Medchem), 150 μM ascorbic acid and 0.5 μM SAG. The next day medium was changed to N2B27-medium containing 1 μg/ml doxycycline. On DO medium was changed to glial-induction medium (GIM) consisting of DMEM-F12 with 1:100 B27 supplement lacking vitamin A, 1:200 N2 supplement, 1% PSG, 1 μM SAG, 10 ng/mL NT3 (Peprotech), 10 ng/mL IGF-I (Peprotech), 200 μM AA (Sigma), 1:1000 Trace Elements B (Corning). For full medium conditions 10 ng/ml T3 was added. On Day 2 medium was changed to glial-differentiation medium (GDM) comprising DMEM-F12 with 1:100 B27 supplement lacking vitamin A, 1:200 N2 supplement, 1% PSG, 100 μM dbCAMP (Sigma), 100 μM AA, 1:1000. For full medium conditions 60 ng/mL T3, Trace Elements B 10 ng/mL, IGF-I, 10 ng/mL and NT3 were added to the culture. GDM was changed every other day. On day 7 cells were detached by treatment with Accutase and re-plated on laminin coated 48-well plates at densities of 10.000-12.000 cells per well. After 24 h cells were treated in minimal medium with either vehicle alone [0.01% (vol/vol) DMSO] as a negative control, 60 ng/mL T3 as a positive control, or with a drug candidate dissolved in DMSO. Medium was changed every other day. On D16 doxycycline was removed from the medium. Cells were fixed on D21 and analyzed via immunocytochemistry.
Immunocytochemistry. Cells were initially fixed with 4% PFA treatment for 20 min, RT. Following three washes with PBS cells were incubated with blocking solution containing 5% normal goat serum (NGS) and 5% FCS (fetal calf serum) in PBS for 30 min at RT to prevent unspecific binding of the antibodies. To detect intracellular antigens cells were permeabilized by adding 0.5% Triton X-100 to the Blocking-solution. Cells treated with Triton X-100 were washed three times with PBS each time for 5 min at RT. Primary antibodies (rat anti-MBP,1:50, Abcam, AB7349) were applied overnight, 4° C., in blocking solution. The next day cells were washed 3 times with PBS at RT, and afterwards incubated with secondary antibodies (AF488 Alexa Fluor anti-rat (goat), 1:500, Jackson/Dianova, #112-545-167) diluted in PBS for 1 h at RT. Secondary antibodies were subsequently removed by washing 3 times with PBS. Afterwards PBS containing a Dapi staining for nuclei was added for 5 minutes and afterwards washed off with PBS. Cells were kept at 4° C. until imaging.
Imaging and evaluation. From each condition (triplicates) 20-30 pictures were taken randomly chosen by the Dapi-signal. Cell numbers were determined by using an ImageJ Macro to count the nuclei whereas MBP positive cells were subsequently counted manually in black and white images.
The effect on oligodendroglial differentiation of 32 compounds (“Front runners”) was tested. Induced pluripotent stem cells in which the transcription factors SOX10, OLIG2, NKX6.2 were inserted in a doxycycline inducible manner into a human safe harbor were differentiated into neural stem cells. Differentiation into oligodendrocytes was induced by addition of doxycycline. Cells were cultured either in a minimal medium (MM) (negative control) or in MM with the different compounds at a concentration of 1 μM. Addition of T3 to the minimal medium served as a positive control.

SMILES | CG4 differentiation compared with 9cis-RA positive control [1] | viability compared to DMSO ([2]; human) | other results
CNCc1ccc(C)c(NC(=O)c2ccc(Nc3nc(-c4ccccc4)c4ccccc4n3)cc2)c1 [BMS-833923] | promoting differentiation significantly higher than 9cis-RA positive control | 65-80% | 
Cc1nc(C#Cc2ccnc(Cl)c2)c(C)n1-c1ccc(F)cc1 [Basimglurant] |  | 65-80% | preservation of neurite length and network integrity (branching) (mouse cortical neurons): preserved both neurite length and the network integrity (branching)
OC1CCC(Nc2nc(-c3ccccc3)nc3[nH]ccc23)CC1 (centres unmarked) [Derenofylline] |  | 65-80% | 
CCn1c(=O)c2c(nc(/C=C/c3ccc(OC)c(OC)c3)n2C)n(CC)c1=O [Istradefylline] |  | 65-80% | 
CC[C@@H](Oc1cccc(CN(CCCOc2ccc(OC)cc2)c2nc3ccccc3o2)c1)C(=O)O [K-877 Pemafibrate] |  |  | viability compared to DMSO [2]: 65-80%
CCNC(=O)C1CC(F)(c2ccc(CN3CCCC3)c(F)c2)C1 (centres unmarked) [PF-03654746] | promoting differentiation significantly higher than 9cis-RA positive control |  | myelin area [3]: identified; differentiation into MBP+ oligodendrocytes [4]: promote significantly (p<0.05) the differentiation into MBP+ oligodendrocytes
CCC/N=C1\S/C(=C\c2ccc(OC[C@H](O)CO)c(Cl)c2)C(=O)N1c1ccccc1C [Ponesimod] | promoting differentiation significantly higher than 9cis-RA positive control |  | myelin area [3]: identified; differentiation into MBP+ oligodendrocytes [4]: promote significantly (p<0.05) the differentiation into MBP+ oligodendrocytes
COc1cccc(OC)c1-c1cc(C(=O)NC2(C(=O)O)C3CC4CC(C3)CC2C4)nn1-c1ccnc2cc(Cl)ccc12 (centres unmarked) [Reminertant] |  | 65-80% | 

Source: patent US20240148745A1, “COMPOUNDS FOR USE IN PROGRESSIVE MULTIPLE SCLEROSIS” (FONDAZIONE CENTRO SAN RAFFAELE, priority 2021, published 2024)
